Measurements: patent publication US8735382B2, “Infusion and injection solution of levodopa” (Dizlin Medical Design AB, priority 2004, dated 2014)
“Also recorded” adds a separate entry of the source.

Key:
[1] = Solubility of Levodopa in HCl and after raising the pH with glucose; type: physicochemical
Description: Levodopa can be dissolved in HCl up to 100 mg/mL without any precipitation. To raise the pH with glucose in a way according to the invention and still get a stabile solution, it is possible to obtain 10 mg/mL Levodopa, and with 2 mg/mL Carbidopa addition 20 mg/mL Levodopa. A precipitate appears at 30 mg/mL Levodopa in the presence of 3 mg/mL Carbidopa. The steps of producing the solutions of the invention are made rather quickly up to the addition of glucose.

PD patients = test: Continuous intravenous infusion of Levodopa in PD patients; type: in vivo, human
Description: Continuous infusion of Levodopa has been given to PD patients during 12 hours a day for 10 days. The daily dosage of Levodopa was 608 mg and the infusion rate was 51 mg/h. Fifty % of the patients received traditional oral administration of Carbidopa and 50% received Benserazide.

patient = test: Subcutaneous continuous infusion of Levodopa in a patient; type: in vivo, human
Description: Tests have been made with subcutaneous infusion. […] The patient was further treated intravenously another day, with continuous Levodopa infusion.

[2] = cited from earlier work
[3] = dissolved in HCl and diluted with glucose, Levodopa only active ingredient; cited from earlier work

- Levodopa concentration dissolved without any precipitation ([1]; in HCl): up to 100 mg/mL
- Levodopa concentration at which a precipitate appears ([1]; in the presence of 3 mg/mL Carbidopa): 30 mg/mL
- Levodopa concentration obtainable as stabile solution ([1]; pH raised with glucose according to the invention, no Carbidopa): 10 mg/mL
- Levodopa concentration obtainable as stabile solution ([1]; pH raised with glucose, with 2 mg/mL Carbidopa addition): 20 mg/mL
Compound: N[C@@H](Cc1ccc(O)c(O)c1)C(=O)O [Levodopa, 3-(3,4-dihydroxiphenyl)-L-alanine]
- follow-up time at which the long-term effect was stable (PD patients; after the concluded infusion): 6-10 months
- clinical fluctuations (dyskinesia and bradykinesia) (PD patients; intravenous, 12 hours a day for 10 days, 608 mg daily, seventeen patients, preliminary): both bradykinesia and above all dyskinesia decline; also recorded: pronounced decrease in clinical fluctuations
- duration of the long-lasting effect (PD patients; intravenous, 12 hours for 10 days): at least 5 months
- dyskinesia during infusion treatment, single case (PD patients; person, PD for 20 years): dyskinesia disappeared almost completely
- therapeutic interval from analysis of Levodopa in plasma (PD patients; plasma, not uniform in the material): widening of the therapeutic interval
- required oral Levodopa dosage, post-treatment (mean) (PD patients; seventeen patients, after intravenous infusion treatment): 773 mg/day
- required oral Levodopa dosage, pre-treatment (mean) (PD patients; seventeen patients, before intravenous infusion treatment): 1003 mg/day
- Levodopa blood concentrations during the day (patient; same patient, one day of continuous intravenous infusion): some fluctuations of the Levodopa blood concentrations occurred
- clinical effect (patient; subcutaneous infusion): positive clinical effect; also recorded: good clinical effect
- distribution of Levodopa to the blood (patient; subcutaneous infusion): fast distribution of Levodopa to the blood with measurable concentrations
- dose dependence of response (patient; subcutaneous infusions, one patient): responded in a dose dependant manner
- delay in concentration levels between plasma and CNS ([2]; in vivo): about 90 minutes
- fraction of the total dose that enters the blood circulation ([2]; oral administration): approximately 10%
- Levodopa concentration above which Levodopa precipitates [3]: > 5 mg/mL
